These results are taken from US10947242B2, “[1,2,4]triazolo[1,5and#8208;A]pyrimidine compounds as PDE2 inhibitors” (Janssen Pharmaceutica NV, priority 2016, dated 2021).

Test [1] has as its target T1, PDE2A (Rattus norvegicus, UniProt Q01062).
T1 construct: Twenty μm-thick striatal sections were cut; from tissue; host or cells: rat brain, striatal sections
T1 sequence (Q01062 1-928): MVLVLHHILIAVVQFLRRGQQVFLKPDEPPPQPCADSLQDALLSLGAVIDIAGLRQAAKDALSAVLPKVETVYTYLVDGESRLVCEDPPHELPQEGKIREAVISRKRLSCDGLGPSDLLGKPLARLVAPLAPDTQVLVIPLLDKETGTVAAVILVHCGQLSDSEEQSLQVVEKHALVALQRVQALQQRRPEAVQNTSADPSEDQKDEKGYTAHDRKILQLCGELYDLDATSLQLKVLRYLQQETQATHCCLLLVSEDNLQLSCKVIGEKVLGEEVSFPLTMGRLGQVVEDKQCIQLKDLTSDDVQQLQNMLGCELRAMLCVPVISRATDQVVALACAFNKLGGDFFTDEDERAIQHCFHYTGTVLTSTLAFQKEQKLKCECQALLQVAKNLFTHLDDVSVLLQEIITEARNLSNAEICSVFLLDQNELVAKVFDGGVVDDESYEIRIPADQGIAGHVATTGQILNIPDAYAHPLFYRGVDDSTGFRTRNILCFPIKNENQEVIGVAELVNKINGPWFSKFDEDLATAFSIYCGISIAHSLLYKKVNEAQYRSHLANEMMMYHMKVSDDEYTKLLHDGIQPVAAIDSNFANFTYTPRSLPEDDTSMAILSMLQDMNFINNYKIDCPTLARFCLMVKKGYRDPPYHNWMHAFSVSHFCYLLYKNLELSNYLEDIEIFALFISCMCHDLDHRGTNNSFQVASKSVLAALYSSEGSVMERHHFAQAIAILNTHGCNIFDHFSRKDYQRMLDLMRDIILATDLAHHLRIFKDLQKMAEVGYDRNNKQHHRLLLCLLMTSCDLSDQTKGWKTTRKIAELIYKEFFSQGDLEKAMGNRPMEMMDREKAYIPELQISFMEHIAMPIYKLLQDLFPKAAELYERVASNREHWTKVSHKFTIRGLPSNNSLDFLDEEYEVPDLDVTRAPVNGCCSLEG
Put plainly: PDE2 occupancy by test compounds, ex-vivo autoradiography with [3H]B-17a. The test is classed as in vivo, Male Wistar rats. The settings on record: 10 mg/kg, percentage receptor occupancy, ex-vivo autoradiography, striatum.

In test [2] the target is T2, Human recombinant PDE2A (hPDE2A) (Homo sapiens, UniProt O00408).
T2 construct: His tag (inferred from metal chelate purification); made in house; host or cells: Sf9 insect cells (baculovirus)
Put plainly: In vitro assay PDE2A (SPA, 3H-cGMP hydrolysis). The test is classed as biochemical. The settings on record: for IC50: read-out: hPDE2A pIC50 (converted); for Emax: read-out: hPDE2A Emax.

Test [3] has as its target T3, Human recombinant PDE10A (hPDE10A) (Homo sapiens, UniProt Q9Y233).
T3 construct: His tag (inferred from metal chelate purification); made in house; host or cells: Sf9 insect cells (baculovirus)
Put plainly: In vitro assay PDE10A, human clone (SPA, 3H-cAMP hydrolysis). The class given is biochemical. Summed up: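 Human recombinant PDE10A was expressed in Sf9 cells via baculovirus and incubated with compound in 50 mM Tris pH 7.8, 8.3 mM MgCl2, 1.7 mM EGTA. Substrate was 60 nM cAMP plus 0.008 μCi 3H-cAMP for 60 min at room temperature, read by SPA scintillation counting. Controls used 1% DMSO, and blanks omitted enzyme.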

The target in test [4] is T4, Human recombinant PDE3A (hPDE3A) (Homo sapiens, UniProt Q14432).
T4 construct: purchased Scottish Biomedical; host or cells: Sf9 insect cells
The experiment in a line: In vitro assay PDE3A (SPA, 3H-cAMP hydrolysis).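 For Emax: the method names PDE3A and the table heading PDE3B.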 The test is classed as biochemical. The settings on record: for IC50: read-out: pIC50 (converted); for Emax: read-out: hPDE3B Emax, read-out: Emax. Summed up:
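Human PDE3A, cloned from brain, as partially purified Sf9 lysate. Substrate 0.4 μM cAMP plus [3H]-cAMP (2.4 μCi/ml final) in 50 mM Tris pH 7.8, 8.3 mM MgCl2, 1.7 mM EGTA, 60 min at room temperature, 1% DMSO final. Hydrolysis read by SPA scintillation counting against no-enzyme blanks and DMSO controls.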

Setting [5] is: human recombinant PDE2A, 10 μM cGMP substrate.
[6] abbreviates: human clone (h), default, read-out: hPDE10A2 Emax.
Setting [7] is: human clone (h), default, read-out: hPDE10A2 pIC50 (converted).
Setting [8] is: human clone by default (no (r) mark), read-out: hPDE10A2 or rPDE10A2 Emax.
Setting [9] is: human clone by default (no (r) mark), read-out: hPDE10A2 or rPDE10A2 pIC50 (converted).
Where [10] appears, read: hPDE2A pIC50, human recombinant PDE2A, 10 μM cGMP substrate.

By Emax is commonly meant the greatest response seen or fitted, relative to the assay's reference. In general, pIC50 refers to −log10 of the IC50, conventionally taken in molar units.

pIC50: −log10 of the molar value. Like-named read-outs stand apart in the source and are kept apart here.

T2 sequence (O00408 whole entry): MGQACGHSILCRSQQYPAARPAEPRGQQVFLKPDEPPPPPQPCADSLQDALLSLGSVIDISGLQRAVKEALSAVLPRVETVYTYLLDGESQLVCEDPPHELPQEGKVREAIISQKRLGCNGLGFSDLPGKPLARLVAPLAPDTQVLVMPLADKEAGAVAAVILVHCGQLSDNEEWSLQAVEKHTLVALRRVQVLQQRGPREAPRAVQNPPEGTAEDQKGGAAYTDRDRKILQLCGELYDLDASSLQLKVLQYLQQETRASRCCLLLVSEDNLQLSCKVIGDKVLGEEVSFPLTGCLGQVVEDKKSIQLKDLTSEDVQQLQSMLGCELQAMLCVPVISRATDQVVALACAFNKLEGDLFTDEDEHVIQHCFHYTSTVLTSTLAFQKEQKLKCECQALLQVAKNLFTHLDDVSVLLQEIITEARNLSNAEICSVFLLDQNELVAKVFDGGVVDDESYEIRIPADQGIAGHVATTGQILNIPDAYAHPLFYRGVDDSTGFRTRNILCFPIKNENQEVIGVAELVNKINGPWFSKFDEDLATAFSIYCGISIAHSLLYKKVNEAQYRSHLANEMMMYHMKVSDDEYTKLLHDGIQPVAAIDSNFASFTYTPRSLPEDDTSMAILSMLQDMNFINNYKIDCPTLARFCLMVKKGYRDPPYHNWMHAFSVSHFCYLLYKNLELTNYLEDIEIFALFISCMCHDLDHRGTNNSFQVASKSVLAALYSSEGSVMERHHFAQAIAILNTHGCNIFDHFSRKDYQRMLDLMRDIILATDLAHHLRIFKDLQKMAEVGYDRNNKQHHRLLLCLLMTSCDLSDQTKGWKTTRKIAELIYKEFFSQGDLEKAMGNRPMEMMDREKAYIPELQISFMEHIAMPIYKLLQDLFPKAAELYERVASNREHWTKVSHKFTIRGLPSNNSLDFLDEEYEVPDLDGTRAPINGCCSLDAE
T3 sequence (Q9Y233 267-1055): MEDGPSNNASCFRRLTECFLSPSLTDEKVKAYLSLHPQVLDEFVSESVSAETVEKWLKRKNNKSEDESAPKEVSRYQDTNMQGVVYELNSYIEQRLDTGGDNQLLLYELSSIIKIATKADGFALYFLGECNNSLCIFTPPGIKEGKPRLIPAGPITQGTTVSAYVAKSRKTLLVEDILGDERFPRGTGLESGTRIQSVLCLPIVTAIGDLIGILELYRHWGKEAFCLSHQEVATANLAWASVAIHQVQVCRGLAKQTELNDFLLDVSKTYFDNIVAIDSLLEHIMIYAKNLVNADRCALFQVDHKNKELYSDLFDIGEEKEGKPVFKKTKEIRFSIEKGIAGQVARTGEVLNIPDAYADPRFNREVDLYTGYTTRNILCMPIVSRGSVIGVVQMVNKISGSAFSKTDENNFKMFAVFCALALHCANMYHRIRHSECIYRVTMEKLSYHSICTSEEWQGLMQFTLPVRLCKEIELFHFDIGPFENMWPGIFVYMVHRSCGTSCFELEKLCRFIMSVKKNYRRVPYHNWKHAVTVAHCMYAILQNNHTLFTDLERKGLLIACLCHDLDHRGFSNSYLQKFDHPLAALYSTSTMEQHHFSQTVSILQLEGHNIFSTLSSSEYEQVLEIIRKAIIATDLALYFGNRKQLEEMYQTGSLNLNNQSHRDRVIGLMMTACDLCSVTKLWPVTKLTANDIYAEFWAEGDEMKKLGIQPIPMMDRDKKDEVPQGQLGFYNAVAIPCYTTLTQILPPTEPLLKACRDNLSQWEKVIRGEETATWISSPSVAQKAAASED
T4 sequence (Q14432 whole entry): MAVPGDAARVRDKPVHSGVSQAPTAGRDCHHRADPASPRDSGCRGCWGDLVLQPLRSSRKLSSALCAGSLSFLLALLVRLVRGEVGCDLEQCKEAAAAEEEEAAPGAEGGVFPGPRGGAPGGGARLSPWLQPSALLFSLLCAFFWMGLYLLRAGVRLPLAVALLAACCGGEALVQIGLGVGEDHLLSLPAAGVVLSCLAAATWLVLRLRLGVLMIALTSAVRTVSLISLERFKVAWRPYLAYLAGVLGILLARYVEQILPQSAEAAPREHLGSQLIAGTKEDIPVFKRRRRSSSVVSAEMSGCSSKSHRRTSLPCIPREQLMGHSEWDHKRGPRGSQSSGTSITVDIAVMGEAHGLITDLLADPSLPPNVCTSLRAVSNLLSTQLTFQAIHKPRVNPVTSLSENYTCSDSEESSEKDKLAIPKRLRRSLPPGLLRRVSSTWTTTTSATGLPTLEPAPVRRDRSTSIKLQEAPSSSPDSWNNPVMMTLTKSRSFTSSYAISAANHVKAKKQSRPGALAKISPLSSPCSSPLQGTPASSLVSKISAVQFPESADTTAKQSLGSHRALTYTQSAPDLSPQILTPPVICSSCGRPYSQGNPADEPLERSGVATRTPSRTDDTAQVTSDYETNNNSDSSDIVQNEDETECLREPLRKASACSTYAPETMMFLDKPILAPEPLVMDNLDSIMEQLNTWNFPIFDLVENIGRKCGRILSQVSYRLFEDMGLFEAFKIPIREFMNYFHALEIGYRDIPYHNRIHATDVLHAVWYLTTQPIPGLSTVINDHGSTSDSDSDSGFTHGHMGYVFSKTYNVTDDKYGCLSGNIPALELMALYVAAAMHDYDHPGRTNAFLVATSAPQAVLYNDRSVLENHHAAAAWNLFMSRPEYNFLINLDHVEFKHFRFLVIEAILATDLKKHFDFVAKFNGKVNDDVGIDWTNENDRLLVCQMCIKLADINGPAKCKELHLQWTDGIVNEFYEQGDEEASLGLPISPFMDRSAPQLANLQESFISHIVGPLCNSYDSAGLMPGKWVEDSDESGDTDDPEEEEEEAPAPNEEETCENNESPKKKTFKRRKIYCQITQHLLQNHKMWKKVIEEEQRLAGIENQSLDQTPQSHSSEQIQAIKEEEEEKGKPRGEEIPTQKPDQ

As for `Cc1cc(C(=O)N2CC[C@@H](C)[C@H](c3cc(C(F)F)nc4ncnn34)C2)cc(C(C)C)n1` [Compound 101], the receptor occupancy at 10 mg/kg in test [1] (sc, route SC (subcutaneous)) came to 43%. Moreover, the IC50 is 0.661 nM in test [2] (setting [5]), 0.661 nM in test [2], 57.5 nM in test [3] (setting [7]) and 4790 nM in test [4] (hPDE3B pIC50). For the same compound, the Emax in test [2] (human recombinant PDE2A) is 101%; in test [2], 101%; in test [3] (setting [6]), 98%; in test [4] it was 70%.

Consider `C[C@@H]1CCN(C(=O)c2ccc3scnc3c2)C[C@H]1c1cc(C(F)F)nc2ncnn12` [Compound 227], for which the receptor occupancy at 10 mg/kg in test [1] (sc, route SC (subcutaneous)) is 18%. Further, the IC50 is 2.19 nM in test [2] (setting [5]); 2.19 nM in test [2]; 45.7 nM in test [3] (setting [7]); 45.7 nM in test [3] (setting [9]); 380 nM in test [4] (hPDE3B pIC50). Moreover, the Emax was found to be 101% in test [2] (human recombinant PDE2A); 101% in test [2]; 98% in test [3] (setting [6]); 98% in test [3] (setting [8]); 95% in test [4].

As to `Cc1cc(C(=O)N2CC[C@@H](C)[C@](F)(c3cc(C(F)F)nc4ncnn34)C2)cc(C)n1` [Compound 82], in test [1] (po, route PO (oral)), the receptor occupancy at 10 mg/kg came to 28%. For the same compound, the IC50 in test [2] (setting [5]) was 33.9 nM; in test [2] it was 33.9 nM; in test [3] (setting [7]), greater than 10000 nM; in test [4] (hPDE3B pIC50), greater than 10000 nM. The Emax in test [2] (human recombinant PDE2A) is 101%; in test [2] it was 101%; in test [3] (setting [6]), 18%; in test [4], 9%.

Take `Cc1nocc1C(=O)N1CC[C@@H](C)[C@H](c2cc(C(F)F)nc3ncnn23)C1` [Compound 184]: the receptor occupancy at 10 mg/kg in test [1] (po, route PO (oral)) was -2%. Further, the IC50 in test [2] (setting [5]) was 28.2 nM; in test [2] it was 28.2 nM; in test [3] (setting [7]) it was 2750 nM; in test [4] (hPDE3B pIC50), greater than 10000 nM. The Emax stood at 100% in test [2] (human recombinant PDE2A), 100% in test [2], 75% in test [3] (setting [6]) and 17% in test [4].

Turning to `COc1cc(C(=O)N2[C@H]3CC[C@H](c4cc(C(F)F)nc5ncnn45)[C@@H]2CC3)cc(OC)n1` [Compound 301], in test [1] (route PO (oral)), the receptor occupancy at 10 mg/kg was -7%. The Emax in test [2] turned out to be 100%; in test [3] (setting [8]), 89%; in test [4], 62%. Moreover, the IC50 in test [2] was 8.13 nM; in test [3] (setting [9]) it was 1260 nM; in test [4] (hPDE3B pIC50), 6310 nM.

Consider `C[C@@H]1CCN(C(=O)c2cc(F)cc(C#N)c2)C[C@H]1c1cc(C(F)F)nc2ncnn12` [Compound 190], for which the receptor occupancy at 10 mg/kg in test [1] (po, route PO (oral)) came to 1%. The pIC50 in test [2] (hPDE2A pIC50) and in test [2] (setting [10]) was 7.99 throughout. Also, the results for the Emax in test [2], in test [3] (setting [6]) and in test [4] were 100%, 96% and 39%, respectively. Moreover, the values for the IC50 in test [3] (setting [7]) and in test [4] (hPDE3B pIC50) were 158 nM and greater than 10000 nM, respectively.

Regarding `O=C(c1cc(OC(F)F)cc(C2CC2)c1)N1[C@H]2CC[C@H](c3cc(C(F)F)nc4ncnn34)[C@@H]1CC2` [Compound 352], in test [1] (route PO (oral)), the receptor occupancy at 10 mg/kg was 16%. The Emax in test [2] was 100%; in test [3] (setting [8]), 99%; in test [4], 89%. Moreover, the IC50 in test [2] was 7.59 nM; in test [3] (setting [9]), 479 nM; in test [4] (hPDE3B pIC50) it was 1820 nM.

Regarding `Cc1csc(C(=O)N2[C@H]3CC[C@H](c4cc(C(F)F)nc5ncnn45)[C@@H]2CC3)c1` [Compound 347], the receptor occupancy at 10 mg/kg in test [1] (route PO (oral)) was 11%. For the same compound, the negative logarithm of the IC50 (pIC50) in test [2] (hPDE2A pIC50) was 8.27; in test [3] (hPDE10A2 or rPDE10A2 pIC50, human clone by default (no (r) mark)) it was 6.00; in test [4] (hPDE3B pIC50), 5.14. Besides, the values for the Emax in test [2], in test [3] (setting [8]) and in test [4] were 101%, 91% and 63%, respectively.

As to `Cc1cc(C(=O)N2CC[C@@H](C)[C@H](c3cc(C(F)F)nc4ncnn34)C2)cc(C)c1C#N` [Compound 78], the receptor occupancy at 10 mg/kg in test [1] (sc, route SC (subcutaneous)) was found to be 77%. The pIC50 in test [2] (hPDE2A pIC50) and in test [2] (setting [10]) was 9.00 in each case. In addition, the figures for the maximum response (Emax) in test [2], in test [3] (setting [6]) and in test [4] were 102%, 98% and 87%, respectively. For the same compound, the values for the IC50 in test [3] (setting [7]) and in test [4] (hPDE3B pIC50) were 105 nM and 1580 nM, respectively.
